According to PubChem BioAssay AID1259411 (Chemical Carcinogenesis Research Information System (CCRIS), 2018):
Active and inactive are the calls of the source. No rule for the calls is given here.

Tested on: rodent carcinogenicity bioassays, tumor incidence
Experiment: CCRIS carcinogenicity studies
Outline: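 Archive of carcinogenicity, mutagenicity, tumor promotion and tumor inhibition results drawn from journals, NCI reports and other sources, expert-reviewed; covers 1985-2011 and is no longer updated.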

Question: With ClC1(Cl)C2(Cl)C3(Cl)C4(Cl)C(Cl)(Cl)C5(Cl)C3(Cl)C1(Cl)C5(Cl)C24Cl (stereo not given) as the compound, how does the carcinogen call (Species: MOUSE, Strain/Sex: B6AKF1/MALE,FEMALE, Route: GAVAGE/ORAL, Dose: 10 MG/KG FROM D 7- 28 OF LIFE THEN 26 PPM IN DIET, Tumor Site: Type of Lesion: LIVER: HEPATOMA) read?
Answer: active; positive

Question: What about the carcinogen call (Species: MOUSE, Strain/Sex: B6C3F1/MALE,FEMALE, Route: GAVAGE/ORAL, Dose: 10 MG/KG FROM D 7- 28 OF LIFE THEN 26 PPM IN DIET, Tumor Site: Type of Lesion: LIVER: HEPATOMA) of the same compound?
Answer: active; positive

Question: What about the carcinogen call (Species: RAT, Route: ORAL, Tumor Site: Type of Lesion: LIVER) of the same compound?
Answer: active; positive

Question: And the carcinogen call (Species: RAT, Strain/Sex: F344/FEMALE, Route: ORAL, Dose: 0, 0.1, 1, 10, 25, 50 PPM IN FEED FOR 104 WK (STUDY DURATION: 105 WK), Dose: 0, 0.1, 1, 10, 25, 50 PPM IN FEED FOR 104 WK (STUDY DURATION: 105 WK), Tumor Site: Type of Lesion: HEMATOPOIETIC SYSTEM: MONONUCLEAR CELL LEUKEMIA)?
Answer: active; positive

Question: What about the carcinogen call (Species: RAT, Strain/Sex: F344/FEMALE, Route: ORAL, Dose: 0, 50, 100 PPM IN FEED FOR 104 WK (STUDY DURATION: 106 WK), Dose: 0, 50, 100 PPM IN FEED FOR 104 WK (STUDY DURATION: 106 WK), Tumor Site: Type of Lesion: HEMATOPOIETIC SYSTEM: MONONUCLEAR CELL LEUKEMIA, LIVER: NEOPLASTIC NODULE, NEOPLASTIC NODULE OR HEPATOCELLULAR CARCINOMA) of the same compound?
Answer: active; positive

Question: What about the carcinogen call (Species: RAT, Strain/Sex: F344/MALE, Route: ORAL, Dose: 0, 0.1, 1, 10, 25, 50 PPM IN FEED FOR 104 WK (STUDY DURATION: 105 WK), Dose: 0, 0.1, 1, 10, 25, 50 PPM IN FEED FOR 104 WK (STUDY DURATION: 105 WK), Tumor Site: Type of Lesion: LIVER: NEOPLASTIC NODULE, NEOPLASTIC NODULE OR HEPATOCELLULAR CARCINOMA, ADRENAL GLAND: PHEOCHROMOCYTOMA, PHEOCHROMOCYTO) of the same compound?
Answer: active; positive

Question: O=[N+]([O-])c1ccc(Oc2ccc(Cl)cc2Cl)cc1 was tested. Which carcinogen call (Species: MOUSE, Strain/Sex: B6C3F1/FEMALE, Route: ORAL, Dose: 0, 2348, 4696 PPM IN DIET, TWA, Dose: 0, 2348, 4696 PPM IN DIET, TWA, Tumor Site: Type of Lesion: LIVER: HEPATOCELLULAR CARCINOMA OR NEOPLASTIC NODULE) did it give?
Answer: active; positive

Question: What about the carcinogen call (Species: MOUSE, Strain/Sex: B6C3F1/FEMALE, Route: ORAL, Dose: 0, 3000, 6000 PPM IN DIET, Dose: 0, 3000, 6000 PPM IN DIET, Tumor Site: Type of Lesion: LIVER: HEPATOCELLULAR ADENOMA OR CARCINOMA) of the same compound?
Answer: active; positive

Question: What about the carcinogen call (Species: MOUSE, Strain/Sex: B6C3F1/MALE, Route: ORAL, Dose: 0, 2348, 4696 PPM IN DIET, TWA, Dose: 0, 2348, 4696 PPM IN DIET, TWA, Tumor Site: Type of Lesion: LIVER: HEPATOCELLULAR CARCINOMA) of the same compound?
Answer: active; positive

Question: What about the carcinogen call (Species: MOUSE, Strain/Sex: B6C3F1/MALE, Route: ORAL, Dose: 0, 3000, 6000 PPM IN DIET, Dose: 0, 3000, 6000 PPM IN DIET, Tumor Site: Type of Lesion: LIVER: HEPATOCELLULAR ADENOMA OR CARCINOMA) of the same compound?
Answer: active; positive

Question: What about the carcinogen call (Species: RAT, Strain/Sex: F344/FEMALE, Route: ORAL, Dose: 0, 3000, 6000 PPM IN DIET, Dose: 0, 3000, 6000 PPM IN DIET) of the same compound?
Answer: inactive; negative

Question: And the carcinogen call (Species: RAT, Strain/Sex: F344/MALE, Route: ORAL, Dose: 0, 3000, 6000 PPM IN DIET, Dose: 0, 3000, 6000 PPM IN DIET)?
Answer: inactive; negative

Question: And the carcinogen call (Species: RAT, Strain/Sex: OSBORNE-MENDEL/FEMALE, Route: ORAL, Dose: 0, 1300, 2600 PPM IN DIET, TWA, Dose: 0, 1300, 2600 PPM IN DIET, TWA, Tumor Site: Type of Lesion: PANCREAS: CARCINOMA)?
Answer: active; positive

Question: With C=C(C#N)C(=O)OCC(C)C as the compound, how does the carcinogen call (Species: RAT, Strain/Sex: F344/FEMALE, Route: IMPLANT, Dose: 0, 10, 100 µL INTO VENTRAL LIVER CAPSULE ONCE (STUDY DURATION: 2 YR), Dose: 0, 10, 100 µL INTO VENTRAL LIVER CAPSULE ONCE (STUDY DURATION: 2 YR), Tumor Site: Type of Lesion: BODY CAVITY: SARCOMA) read?
Answer: active; positive

Question: What about the carcinogen call (Species: RAT, Strain/Sex: F344/MALE, Route: IMPLANT, Dose: 0, 10, 100 µL INTO VENTRAL LIVER CAPSULE ONCE (STUDY DURATION: 2 YR), Dose: 0, 10, 100 µL INTO VENTRAL LIVER CAPSULE ONCE (STUDY DURATION: 2 YR), Tumor Site: Type of Lesion: BODY CAVITY: SARCOMA) of the same compound?
Answer: active; positive

Question: For O=C1C=C[C@H]2CO[C@@H]1O2, which carcinogen call (Species: MOUSE, Strain/Sex: CD-1/FEMALE, Route: DERMAL, Dose: 0, 2.5 UMOL/0.1 DMSO 2/WK FOR 5 WK FOLLOWED 1 WK LATER BY 0.1 ML ACETONE 2/WK FOR 47 WK (STUDY DURATION: 52 WK)) is on record?
Answer: inactive; negative

Question: O=c1[nH]cc(N(CCCl)CCCl)c(=O)[nH]1 was tested. Which carcinogen call (Species: MOUSE, Strain/Sex: STRAIN-A/MALE,FEMALE, Route: INTRAPERITONEAL, Dose: 0.18-12 MG/KG IN 12 DOSES OVER 4 WK, Tumor Site: Type of Lesion: LUNG: ADENOMA) did it give?
Answer: active; positive

Question: What about the carcinogen call (Species: MOUSE, Strain/Sex: STRAIN-A/MALE,FEMALE, Route: INTRAPERITONEAL, Dose: 8, 20, 40 MG/KG FOR 7 DOSES OVER 24 WK, Dose: 8, 20, 40 MG/KG FOR 7 DOSES OVER 24 WK, Tumor Site: Type of Lesion: LUNG: ADENOMA) of the same compound?
Answer: active; positive

Question: And the carcinogen call (Species: RAT, Strain/Sex: STRAIN-CD/FEMALE, Route: INTRAPERITONEAL, Dose: 0.15, 0.3 MG/KG 3/WK FOR 6 MO, Tumor Site: Type of Lesion: LYMPHATIC SYSTEM: LYMPHOMA, PERITONEAL CAVITY: SARCOMA, MAMMARY GLAND: CARCINOMA, OVARIES: CARCINOMA, Tumor Site: Type of Lesion: LYMPHATIC SYSTEM: LYMPHOMA, PERITONEAL CAVITY: SARCOMA, MAMMARY GLAND: CARCINOMA, OVARIES: CARCINOMA)?
Answer: active; positive

Question: And the carcinogen call (Species: RAT, Strain/Sex: STRAIN-CD/MALE, Route: INTRAPERITONEAL, Dose: 0.15, 0.3 MG/KG 3/WK FOR 6 MO, Tumor Site: Type of Lesion: LYMPHATIC SYSTEM: LYMPHOMA, PANCREAS, PERITONEAL CAVITY: SARCOMA, Tumor Site: Type of Lesion: LYMPHATIC SYSTEM: LYMPHOMA, PANCREAS, PERITONEAL CAVITY: SARCOMA)?
Answer: active; positive
